Laboratory results reported in paper PMC4573853 (Genes & Development, 2015).
Blank lines part the entries; values can stand above or below the compound they belong to. No end group written: not given here.

How the values were obtained:
[1] = tested on: taf14Δ strain (BY4741 background); assay: Spotting assay on 6-azauracil medium; type: cell-based, S. cerevisiae; settings: Fig. 4F
taf14Δ cells [2] = assay: Spotting assay, sensitivity to DNA-damaging agents; type: cell-based, S. cerevisiae; settings: Supplemental Fig. S3D
taf14Δ cells [3] = settings: ref Zhang et al. 2004; cited from earlier work
[4] = molecular target: T1, Taf14 YEATS (residues 1–132) (Saccharomyces cerevisiae, UniProt P35189); assay: NMR chemical shift perturbation; type: binding, S. cerevisiae; settings: for amide resonance changes / interaction: 15N-labeled Taf14 YEATS (1–132), peptide titration
T1 sequence (P35189 1-132): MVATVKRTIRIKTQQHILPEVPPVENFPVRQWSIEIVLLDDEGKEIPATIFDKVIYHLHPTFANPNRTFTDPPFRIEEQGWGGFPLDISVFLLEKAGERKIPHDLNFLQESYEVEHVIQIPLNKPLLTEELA

Yaf9 YEATS domain = settings: capacity to bind in vitro; ref Li et al. 2014; cited from earlier work
[5] = 1H,15N HSQC, Supplemental Fig. S2A

Compound: O=c1cn[nH]c(=O)[nH]1 [6-AU, 6-azauracil]
rescue of 6-AU growth by taf14W81A ([1]; taf14Δ expressing taf14W81A): unable to rescue
rescue of 6-AU sickness by exogenous TAF14 ([1]; taf14Δ expressing wild-type TAF14): could rescue

Compound: NC(=O)NO [HU, hydroxyurea]
sensitivity of taf14Δ strain (taf14Δ cells [2]): sensitivity
sensitivity of taf14Δ cells (taf14Δ cells [3]): sensitive

Compound: COS(C)(=O)=O [MMS, methane methylsulfonate]
effect of Taf14 YEATS disruption on response to agent (taf14Δ cells [2]; taf14Δ expressing taf14W81A): significantly impaired the response
sensitivity of taf14Δ cells (taf14Δ cells [3]): sensitive

Compound: CC(=O)NCCCC[C@H](N)C(=O)O [acetylated lysine]
amide resonance changes / interaction ([4]; 1H,15N HSQC): CSPs primarily in an acetyllysine-binding pocket

amide resonance changes / interaction ([4]; 1H,15N HSQC): strong interaction
Compound: H3K9ac1–12: H3K9ac1–12 peptide

binding relative to H3K9ac1–12 [4, 5]: slightly decreased
Compound: H3K9ac5–13: H3K9ac5–13 peptide (Ac-QTARK(Ac)STGG)
resonance perturbation pattern relative to H3K9ac1–12 [4, 5]: nearly identical resonance perturbation pattern

CSP magnitude relative to H3K9ac ([4]; 1H,15N HSQC, Supplemental Fig. S2B): smaller in magnitude
binding relative to H3K9ac ([4]; inferred from CSP magnitude, Supplemental Fig. S2B): weaker
Compound: H3K27ac21–31: H3K27ac21–31 peptide (ATKAARK(Ac)SAPA)

Compound: H3K27ac: H3 peptide acetylated at Lys27 (ATKAARK(Ac)SAPA)
preference of Yaf9 YEATS domain (Yaf9 YEATS domain): capacity to bind

Compound: phleomycin
sensitivity of taf14Δ strain (taf14Δ cells [2]): sensitivity
